Drawing on patent US20250282768A1 (Janssen Pharmaceutica NV, priority 2022, published 2025), this text covers IC50 for 12 compounds.

In this experiment the test system is p-IKKa levels in L363 (NIK translocated multiple myeloma) cells. The experiment in a line: Assay 2: Effect of compounds on p-IKKa levels in L363 (NIK translocated multiple myeloma) cells. In kind it is cell-based. The following applies: Homo sapiens, L-363, 6 h, read-out: Assay 2 IC50 (nM), p-IKKa (Ser 176/180) in BAFF stimulated L363 cells with MG132, 6 h; average if tested more than once. The protocol: Assay 2: Effect of Compounds on p-IKKa Levels in L363 (NIK Translocated Multiple Myeloma) Cells
All compounds tested were dissolved and serially diluted in DMSO, 1:3 dilution for 11 points in an Echo compatible plate. 100% DMSO was added to columns 12 and 24 of the plate to serve as high and low signal controls. This compound plate was used to spot 20 nL of compound or DMSO into a Greiner 384 well TC plate (781080). The final DMSO concentration was 0.3% (v/v) in cell assays. Human L363 cells (ATCC) were cultured in RPM11640 medium supplemented with GlutaMax, non-essential amino acids, sodium pyruvate and 10% fetal bovine serum. Cells were routinely maintained at densities of 0.2×10^6 cells per ml—2×10^6 cells per mL at 37° C. in a humidified 5% CO2 atmosphere incubator. Cells were passaged twice a week splitting back to obtain the low density. The day before the assay, cells were washed twice in HBSS (Hank's Balanced Salt Solution), resuspended in Dulbecco's Modified Eagle Medium (DMEM)+0.5% IgG and protease free BSA (Jackson Immuno Research Laboratories), +/−250 ng/ml recombinant human B-cell activating factor (BAFF/BLyS/TNFSF13B) and incubated overnight at 37° C. in a humidified 5% CO2 atmosphere (bulk stimulation with or without BAFF). The next day, the cell concentration was adjusted to 1×10^7 cells/ml in DMEM+/−250 ng/ml BAFF +/−10 μM MG132 and plated at 10 μl/well into compound or DMSO spotted 384 well TC plates. Seeded cells were incubated at 37° C. in a humidified 5% CO2 atmosphere for 6 h. After 6 h, the plates were removed from the incubator and cell lysis was achieved by the addition of 2.5 μl 5×lysis buffer containing protease and phosphatase inhibitors, followed by shaking on a plate shaker at room temperature for 15 min. At the end of this incubation, lysed cells were sequentially treated and incubated with acceptor and donor bead mixes according to the manufacturer's protocol for a 1 plate/2-incubation suspension cell assay (AlphaLISA SureFire Ultra p-IKKa (Ser 176/180) Assay Kit (Perkin Elmer). Plates were read using an EnVision Multilabel Plate Reader (Perkin Elmer). Within an experiment, a concentration response curve for each compound was run in duplicate. The signal obtained in the test wells was normalized using high signal (BAFF stimulated cells, DMSO, MG132) and low signal (unstimulated cells, DMSO) controls. To determine the IC50, a sigmoidal curve was fitted to the plot of % inhibition versus Log10 compound concentration.

Structures are written as SMILES.

For the compound `CN1CC[C@@](O)(c2cc(-c3cccc(-c4ccnc(NC(c5cnn(C)c5)C(F)(F)F)n4)n3)no2)C1=O` (mixture of isomers) [Example 96, (R)-3-Hydroxy-1-methyl-3-(3-(6-(2-(((RS)-2,2,2-trifluoro-1-(1-methyl-1H-pyrazol-4-yl)ethyl)amino)pyrimidin-4-yl)pyridin-2-yl)isoxazol-5-yl)pyrrolidin-2-one], the IC50 is 50 to 500 nM. With `CN1CC[C@@](O)(c2cc(-c3cccc(-c4ccnc(NC5CCN(C6CC6)C5)n4)n3)no2)C1=O` (mixture of isomers) [Example 448, (3R)-3-(3-(6-(2-((1-Cyclopropylpyrrolidin-3-yl)amino)pyrimidin-4-yl)pyridin-2-yl)isoxazol-5-yl)-3-hydroxy-1-methylpyrrolidin-2-one], the IC50 was greater than 500 nM. For `CN1CC[C@@](O)(c2cc(-c3cccc(-c4ccnc(NC5CCSC5)n4)n3)no2)C1=O` (mixture of isomers) [Example 456, (3R)-3-Hydroxy-1-methyl-3-(3-(6-(2-((tetrahydrothiophen-3-yl)amino)pyrimidin-4-yl)pyridin-2-yl)isoxazol-5-yl)pyrrolidin-2-one], the IC50 was in the range of 50 to 500 nM.

For `CN1CC[C@@](O)(c2cc(-c3cccc(-c4ccnc(NC5COCC(F)(F)C5)n4)n3)no2)C1=O` (mixture of isomers) [Example 459, (3R)-3-(3-(6-(2-((5,5-Difluorotetrahydro-2H-pyran-3-yl)amino)pyrimidin-4-yl)pyridin-2-yl)isoxazol-5-yl)-3-hydroxy-1-methylpyrrolidin-2-one], the IC50 lay within 50 to 500 nM. With `COC(CNc1nccc(-c2cccc(-c3cc([C@]4(O)CCN(C)C4=O)on3)n2)n1)C(F)(F)F` (mixture of isomers) [Example 461, (3R)-3-Hydroxy-1-methyl-3-(3-(6-(2-((3,3,3-trifluoro-2-methoxypropyl)amino)pyrimidin-4-yl)pyridin-2-yl)isoxazol-5-yl)pyrrolidin-2-one], the IC50 fell in the range of 50 to 500 nM. As for `CN1CC[C@@](O)(c2cc(-c3cccc(-c4ccnc(NC5COCC5(F)F)n4)n3)no2)C1=O` (mixture of isomers) [Example 465, (3R)-3-(3-(6-(2-((4,4-Difluorotetrahydrofuran-3-yl)amino)pyrimidin-4-yl)pyridin-2-yl)isoxazol-5-yl)-3-hydroxy-1-methylpyrrolidin-2-one], the IC50 was in the range of 50 to 500 nM. As for `CN1CC[C@@](O)(c2cc(-c3cccc(-c4ccnc(NC5CCOc6ncccc65)n4)n3)no2)C1=O` (mixture of isomers) [Example 472, (3R)-3-(3-(6-(2-((3,4-Dihydro-2H-pyrano[2,3-b]pyridin-4-yl)amino)pyrimidin-4-yl)pyridin-2-yl)isoxazol-5-yl)-3-hydroxy-1-methylpyrrolidin-2-one], the IC50 lay in the range of 50 to 500 nM. In the case of `CC1CCCCC1Nc1nccc(-c2cccc(-c3cc([C@]4(O)CCN(C)C4=O)on3)n2)n1` (mixture of isomers) [Example 341, (3R)-3-Hydroxy-1-methyl-3-(3-(6-(2-(((rac)-2-methylcyclohexyl)amino)pyrimidin-4-yl)pyridin-2-yl)isoxazol-5-yl)pyrrolidin-2-one], the IC50 was 50 to 500 nM.

Consider `CC1CC(Nc2nccc(-c3cccc(-c4cc([C@]5(O)CCN(C)C5=O)on4)n3)n2)CO1` (mixture of isomers) [Example 343, (R)-3-Hydroxy-1-methyl-3-(3-(6-(2-(((rac)-5-methyltetrahydrofuran-3-yl)amino)pyrimidin-4-yl)pyridin-2-yl)isoxazol-5-yl)pyrrolidin-2-one], for which the IC50 lay in the range of 50 to 500 nM.

For the compound `C[C@@H](Nc1nccc(-c2cccc(-c3cc([C@]4(O)CCN(C)C4=O)on3)n2)n1)c1ccnn1C` (single isomer, unassigned) [Example 67], the IC50 is 50 to 500 nM. With `C[C@H](Nc1nccc(-c2cccc(-c3cc([C@]4(O)CCN(C)C4=O)on3)n2)n1)c1ccnn1C` (single isomer, unassigned) [Example 68], the IC50 lay within 50 to 500 nM.

As to `C[C@@H](Nc1nccc(-c2cccc(-c3cc([C@]4(O)CCN(C)C4=O)on3)n2)n1)c1cnn(C)c1` (single isomer, unassigned) [Example 69], the IC50 is less than 50 nM.
